Patent US6448399B1, “Fused heteroaromatic glucokinase activators” (Hoffmann-La Roche Inc., priority 2000, dated 2002)

Test system: C57BL/6J mice
Assay: Glucokinase activator in vivo screen (blood glucose after oral dosing)
Conditions: administered orally, 50 mg/kg, active = significant (p≦0.05) decrease in blood glucose vs vehicle at two consecutive time points
Procedure: Glucokinase Activator in vivo Screen Protocol
C57BL/6J mice are orally dosed via gavage with Glucokinase (GK) activator at 50 mg/kg body weight following a two hour fasting period. Blood glucose determinations are made five times during the six hour post-dose study period.
Mice (n=6) are weighed and fasted for a two hour period prior to oral treatment. GK activators are formulated at 6.76 mg/ml in Gelucire vehicle (Ethanol:Gelucire44/14:PEG400q.s. 4:66:30 v/w/v. Mice are dosed orally with 7.5 μL formulation per gram of body weight to equal a 50 mg/kg dose. Immediately prior to dosing, a pre dose (time zero) blood glucose reading is acquired by snipping off a small portion of the animals tail (˜1 mm) and collecting 15 μL blood into a heparinized capillary tube for analysis. Following GK activator administration, additional blood glucose readings are taken at 1, 2, 4, and 6 hours post dose from the same tail wound. Results are interpreted by comparing the mean blood glucose values of six vehicle treated mice with six GK activator treated mice over the six hour study duration.

| SMILES | glucokinase activator in vivo activity |
| --- | --- |
| CS(=O)(=O)c1ccc([C@@H](CC2CCCC2)C(=O)Nc2nc3ccccc3s2)cc1Cl [Example 19, N-Benzothiazol-2-yl-2(R)-(3-chloro-4-methanesulfonyl-phenyl)-3-cyclopentyl-propionamide] | excellent glucokinase activator in vivo activity |
| CS(=O)(=O)c1ccc(C(CC2CCCC2)C(=O)Nc2nc3ccccc3[nH]2)cc1Cl (stereo not drawn) [Example 20, N-(1H-Benzoimidazol-2-yl)-2-(3-chloro-4-methanesulfonyl-phenyl)-3-cyclopentyl-propionamide] | excellent glucokinase activator in vivo activity |
| CS(=O)(=O)c1ccc(C(CC2CCCC2)C(=O)Nc2ccc3ccccc3n2)cc1Cl (stereo not drawn) [Example 22, 2-(3-Chloro-4-methanesulfonyl-phenyl)-3-cyclopentyl-N-quinolin-2-yl-propionamide] | excellent glucokinase activator in vivo activity |
